How the values were obtained:
[1] = molecular target: T1, USP14 mutant BL1-USP21 (Homo sapiens, UniProt P54578, DEL335-341/INS333SRGSI); assay: Screening assay with USP14 mutant BL1-USP21, ubiquitin-rhodamine 110 cleavage; type: biochemical; conditions: 63.75 nM mutant USP14 preincubated 30 minutes; Ub-Rh110; normalized to DMSO (0%) and 10 mM NEM (100%); FIG. 7
T1 construct: a full-length cDNA clone encoding full-length USP14 isoform a; made in house; host or cells: E. coli Rosetta 2 (DE3) pLysS
T1 sequence (P54578 with tags, fused parts or gaps INS333SRGSI/DEL335-341): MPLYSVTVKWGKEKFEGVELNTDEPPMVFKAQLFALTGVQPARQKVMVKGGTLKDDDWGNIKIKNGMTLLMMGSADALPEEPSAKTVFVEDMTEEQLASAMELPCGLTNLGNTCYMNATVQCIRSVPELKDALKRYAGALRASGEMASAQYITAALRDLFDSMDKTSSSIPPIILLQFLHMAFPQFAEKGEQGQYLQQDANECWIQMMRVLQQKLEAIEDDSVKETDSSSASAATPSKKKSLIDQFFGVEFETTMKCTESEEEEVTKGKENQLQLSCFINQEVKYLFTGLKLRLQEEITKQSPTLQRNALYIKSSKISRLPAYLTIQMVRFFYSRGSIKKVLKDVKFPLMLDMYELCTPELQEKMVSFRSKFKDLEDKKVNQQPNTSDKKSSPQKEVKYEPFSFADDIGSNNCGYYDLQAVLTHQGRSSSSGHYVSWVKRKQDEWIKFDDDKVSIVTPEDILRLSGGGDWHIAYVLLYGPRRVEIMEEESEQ
Procedure: Test compounds were diluted in DMSO to the appropriate concentration before dispensing 2 μl of each compound into a black walled 96 well plate. The compounds were preincubated with 80 μl of reaction buffer containing 63.75 nM mutant USP14 for 30 minutes before adding 20 μl of 510 nM ubiquitin-rhodamine 110 in reaction buffer. The plates were incubated at room temperature before reading on a fluorimeter equipped with excitation and emission filters of […] respectively and a 510 nm dichroic mirror within the linear range of the assay. […] FIG. 7 provides a graph of the results.

[2] = molecular target: T2, USP14 mutant BL2-DNHG (Homo sapiens, UniProt P54578, DEL429-429/S430D/S431N/S432H/S433G); assay: Screening assay with USP14 mutant BL2-DNHG, ubiquitin-rhodamine 110 cleavage; type: biochemical; conditions: 1.275 μM mutant USP14 preincubated 30 minutes; Ub-Rh110; normalized to DMSO (0%) and 10 mM NEM (100%); FIG. 8
T2 construct: a full-length cDNA clone encoding full-length USP14 isoform a; 6xHis (N); yeast SUMO (S. cerevisiae Smt3) (N); made in house; host or cells: E. coli (Rosetta 2 (DE3) pLysS stated for the pE-SUMOpro-USP14 construct)
T2 sequence (P54578 with tags, fused parts or gaps DEL429-429/S430D/S431N/S432H/S433G): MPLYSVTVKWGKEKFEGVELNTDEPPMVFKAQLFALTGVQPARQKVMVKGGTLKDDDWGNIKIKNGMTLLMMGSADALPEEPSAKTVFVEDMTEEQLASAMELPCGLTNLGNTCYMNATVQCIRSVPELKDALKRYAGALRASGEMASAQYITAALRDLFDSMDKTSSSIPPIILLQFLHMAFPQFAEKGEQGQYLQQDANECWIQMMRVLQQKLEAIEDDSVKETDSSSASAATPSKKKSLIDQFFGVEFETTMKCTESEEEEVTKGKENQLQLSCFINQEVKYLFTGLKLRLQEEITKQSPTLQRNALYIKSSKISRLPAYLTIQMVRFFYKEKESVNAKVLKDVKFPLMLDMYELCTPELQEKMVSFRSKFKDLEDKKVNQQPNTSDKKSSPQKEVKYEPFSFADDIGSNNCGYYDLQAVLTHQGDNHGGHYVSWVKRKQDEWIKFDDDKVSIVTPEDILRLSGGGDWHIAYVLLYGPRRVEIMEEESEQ
Procedure: Another screening assay was performed with the USP14 mutant BL2-DNHG. Test compounds were diluted in DMSO to the appropriate concentration before dispensing 2 μl of each compound into a black walled 96 well plate. The compounds were preincubated with 80 μl of reaction buffer containing 1.275 μM mutant USP14 for 30 minutes before adding 20 μl of 510 nM ubiquitin-rhodamine 110 in reaction buffer. The plates were incubated at room temperature before reading on a fluorimeter equipped with excitation and emission filters of 485 and 528 nm respectively and a 510 nm dichroic mirror within the linear range of the assay.

| inhibition of USP14 mutant (BL1-USP21) [1] | inhibition of USP14 mutant (BL2-DNHG) [2] | Structure (SMILES) |
| --- | --- | --- |
| do not inhibit | do not inhibit | CC(=O)c1cc([N+](=O)[O-])c(Sc2ccc(F)cc2F)s1 [P22077] |
| inhibit | inhibit | N#CSc1cc(SC#N)c(N)nc1N [PR-619] |

— patent publication US20130273027A1, “MUTANT PROTEASES AND METHODS OF USE THEREOF” (Progenra, Inc., priority 2012, published 2013)
